Assay results reported in patent US20100227896A1, “USE OF VITAMIN PP COMPOUNDS” (ASTELLAS DEUTSCHLAND GMBH, priority 1998, published 2010).
Where two headings read alike, the source gives them in different places.

How the values were obtained:
NMRI mice = system: NMRI mice
Method: Parallel to this, 500 mg/kg nicotinamide was simultaneously intraperitoneally administered each to the individual dosage groups. 7 days after the beginning of treatment, the blood picture of the individual animals was examined.

[1] = system: Cryptic cells of the large intestine; assay: Growth/vitality of primary cryptic cells of the large intestine (crystal violet, MTT-test, 4 days treatment); format: cell-based
Excerpt: Cryptic cells of the large intestine were isolated according to the method of Booth et al. (1995) with slight modifications. The removed large intestine was cut into pieces, the parts were finally cut after several-fold washing and digested with collagenase and dispase. Subsequently, the larger tissue pieces remaining in the suspension were sedimented, the supernatant was decanted and stored. The pellet was digested again under vigorous shaking with medium in order to release additional cryptic cells. After sedimentation, the supernatant was poured off again, combined with the first fraction and the cryptic cells were centrifuged at 50×g. After a further washing step, the centrifuge cryptic cells were suspended in culture medium and seeded at a density of 800 cells per well in 24-well-cultured dishes which were previously coated with collagen. The cells were incubated at 37° C. in a saturated water vapour atmosphere with 92.5% air and 7.5% CO2. […]
The growth of the culture was photometrically quantified after staining with crystal violet as a measure for the cell number and the vitality of the cells was determined with the MTT-test whose reaction depends on living cells with active mitochondria. Based on dose response curves, the IC50-values were calculated which are also used in the following Table 3 for characterization of the individual substance activity: […]

lymphocytes = assay: Vitality of freshly isolated spleen lymphocytes (flow cytometry, propidium iodide / 3,3'-dihexyloxacarbocyanin iodide, 2 days); format: cell-based, Swiss mouse; conditions: Mus musculus, Lymphocyte
Excerpt: Many cytostatic agents and radiation therapies as well have a cytcotoxic effect not only on tumor cells but also on the blood cell system. This leads to a weakening of the immune defence which can lead to life threatening infections. In addition, this can result in a so-called tumor lyse syndrome which can, lead to the death of the patient by the relatively quick death of large cell masses. In order to test the possibility for a therapeutical use of nicotinic acid and/or nicotinamide for preventing such life threatening conditions by massive cell death, the effect of the substance was tested on freshly isolated lymphocytes as follows:
The spleen of a Swiss mouse served as a lymphocyte source.
The lymphocyte population was isolated from the spleen cell suspension over a ficoll gradient and taken up in IMEM-ZO culture medium with 0,1% dextran 70,000 and 2% foetal calf serum. […] Subsequently, 10,000 cells per each sample were measured on a flow-through cytometer and the percentage amount of vital cells in the population was determined. By means of the dose-response curves, IC50-values were calculated which were also employed in the following Tables for the characterization of the individual substances: […]

THP-1 cells = assay: Growth inhibition of THP-1 human leukaemia cells (WST-1 reagent, four days incubation); format: cell-based; conditions: for IC50: Homo sapiens; for effect on the growth-inhibiting effect of K22.097: THP-1 cells, summary of Table 1
Method: THP-1 cells derived from a human monocytic leukaemia plated at a density of 200,000 cells/ml in 96-well plastic dishes. Cultivation occurred in RPMI 1640 nutrient medium with 10% foetal calf serum (FCS) in a tissue culture incubator with a gas mixture of 5% CO2 and 95% air at a temperature of 37° C. For the individual concentrations and the controls without test substances as well as for the background with nutrient medium but without cells, three-fold batches were done for each. After four days of substance incubation 20 μl WST-1 reagent (Boehringer Mannheim) was respectfully pipetted in each individual well. After 30 to 60 minute incubation in the tissue culture incubator at 37° C. and 5% CO2, the light extinction was measured in an ELISA reader at 450 nm wave length. The backgrounds were each subtracted from the typical measured valves. (The IC50-values (defined as that concentration in which the cell growth was inhibited by 50%) was taken from the dose-response curves and given as a comparative measurement for the activity of the test compounds.
Furthermore, the anti-tumor substance Nr.159 with the internal label K22.175 according to the publication PCT/EP97/03245=WO97/48696 in the form of N-[4-(1-benzoylpiperidin-4-yl)-butyl]-3-(pyridin-3-yl)-acrylamide synthesized by the applicant was included in the experimental examinations. The results obtained therefrom confirm the above described finding on the useful effect according to the invention of the vitamin PP compounds.

O=C(CCc1cccnc1)NCCCCC1CCN(C(c2ccccc2)c2ccccc2)CC1 [K22.097, N-[4-(1-diphenylmethylpiperidin-4-yl)-butyl]-3-(pyridin-3-yl)-propionamide]
Leukocyte number (NMRI mice; 2 × 100 mg/kg K22.097 orally + 2 × 500 mg/kg nicotinamide intraperitoneally, day 7): 6,900 per μl | Leukocyte number (NMRI mice; 2 × 100 mg/kg K22.097 orally over 4 days, blood picture 7 days after beginning of treatment): 1,100 per μl | Leukocyte number (NMRI mice; 2 × 120 mg/kg K22.097 orally + 2 × 500 mg/kg nicotinamide intraperitoneally, day 7): 5,900 per μl | Leukocyte number (NMRI mice; 2 × 120 mg/kg K22.097 orally over 4 days, blood picture 7 days after beginning of treatment): 500 per μl | IC50 ([1]; read-out: IC50-Value for K22.097, primary intestine cryptic cells, + 1 mM nicotinamide): > 10000 nM | IC50 ([1]; read-out: IC50-Value for K22.097, primary intestine cryptic cells, K22.097 alone): 100 nM | IC50 (lymphocytes; read-out: IC50-Value for K22.097, mouse spleen lymphocytes, + 10 mM nicotinamide): > 1000 nM | IC50 (lymphocytes; read-out: IC50-Value for K22.097, mouse spleen lymphocytes, K22.097 alone): 1 nM | IC50 (THP-1 cells; THP-1, read-out: IC50-Value for K22.097, THP-1 cells, + 0.1 mM nicotinic acid): > 10000 nM | IC50 (THP-1 cells; THP-1, read-out: IC50-Value for K22.097, THP-1 cells, + 1 mM nicotinamide): > 10000 nM | IC50 (THP-1 cells; THP-1, read-out: IC50-Value for K22.097, THP-1 cells, K22.097 alone): 10 nM

O=C(C=Cc1cccnc1)NCCCCC1CCN(C(=O)c2ccccc2)CC1 [K22.175, N-[4-(1-benzoylpiperidin-4-yl)-butyl]-3-(pyridin-3-yl)-acrylamide]
IC50 (THP-1 cells; THP-1, THP-1 cells, + 0.1 mM nicotinic acid, read-out: IC50-Value for K22.175): > 30 nM | IC50 (THP-1 cells; THP-1, THP-1 cells, + 1 mM nicotinamide, read-out: IC50-Value for K22.175): > 30 nM | IC50 (THP-1 cells; THP-1, THP-1 cells, K22.175 alone, read-out: IC50-Value for K22.175): 0.5 nM

NC(=O)c1cccnc1 [nicotinamide, reference compound]
Leukocyte number (NMRI mice; mouse, in vivo, ip, 500 mg/kg): 4,800 per μl | effect on the growth-inhibiting effect of K22.097 (THP-1 cells): abrogated

O=C(O)c1cccnc1 [nicotinic acid, reference compound]
effect on the growth-inhibiting effect of K22.097 (THP-1 cells): abrogated
